For one molecule, exosome secretion and dentin formation results are on record in patent US20160120805A1, “EXOSOMES FOR OROFACIAL DIAGNOSTICS AND THERAPEUTICS” (THE TRUSTEES OF COLUMBIA UNIVERSITY IN THE CITY OF NEW YORK, priority 2013, published 2016).

One experiment has as its system exosome secretion. The experiment can be described thus: Exosome secretion measured by protein concentration. It is filed as cell-based.
Experiment [1] concerns reconstituted dental epithelium and mesenchyme tissues. The experiment in a line: Organ culture of reconstituted E16.5 dental epithelium and mesenchyme tissue, dentin formation. It is filed as cell-based. Conditions: 10 uM, control formed dentin at day 10. How it is done:
E16.5 epithelium and mesenchyme tissue (see e.g., FIG. 9A) were reconstituted (see e.g., FIG. 9B) under dissection microscope. The reconstituted organ were cultured for 12 days (see e.g., FIG. 9C-D).

Turning to `O=C(/C=C/c1ccc(/C=C/C(=O)Nc2ccc(C3=NCCN3)cc2)cc1)Nc1ccc(C2=NCCN2)cc1` [GW4869], the exosome secretion result in the experiment with exosome secretion (1.0 uM) and in the experiment with exosome secretion (10.0 uM) was “decreased” each time. Also, the dentin formation entry in experiment [1] is “No dentin formed”.
